In patent US20240148889A1, “STABILIZED TRIOXACARCIN ANTIBODY DRUG CONJUGATES AND USES THEREOF” (President and Fellows of Harvard College, priority 2020, published 2024):
“Also recorded” adds a separate entry of the source.

Experiments:
[1] = test system: tumor; conditions: cited from earlier work
[2] = test system: SF-268; conditions: CNS cancer cell line; cited from earlier work
[3] = test system: H-460; conditions: lung cancer cell line; cited from earlier work
[4] = test system: MCF-7; conditions: mammary cancer cell line; cited from earlier work
[5] = test system: LXFL 529L; conditions: lung cancer cell line; cited from earlier work
[6] = test system: gram-positive; conditions: cited from earlier work
[7] = test system: H460 cells; assay: Cell proliferation assay (resazurin, CellTiter-Blue), H460; format: cell-based; conditions: for IC50: Homo sapiens, NCI-H460, 48 h, 2 days incubation, determined in triplicate; for cellular toxicity against H460 cells relative to the parent epoxide: relative to parent epoxide 1
Procedure: (§1) Cell Culture: Cell line NCI-H460, was purchased from American Type Culture Collection (ATCC). H460 cells were maintained in RPMI-1640 medium and HT-29 cells were maintained in McCoy's 5A medium, supplemented with 10% fetal bovine serum (Life Technologies, UK).
(§2) Cell Proliferation Assay: Cells were plated in black-walled 96-well plates (3000-4000 cells per well). Stock solutions of each compound were diluted serially and the resulting solutions were administrated to cells to achieve final concentrations of 1.1 nM to 2.5 μM in 100 μL total volume. After incubating at 37° C. (5% CO2) for 2 days (H460), 20 μL of resazurin solution (Promega CellTiter-Blue® Cell Viability Assay) was added to each well. After incubating at 37° C. for 4.0 h, the fluorescence (560 nm excitation/590 nm emission) was recorded using a microplate reader (SpectraMax i3) as a measure of viable cells. IC50 values, determined in triplicate, were calculated using a four-parameter logistic equation.

[8] = test system: self-complementary duplex DNA oligonucleotide d(AATTACGTAATT); assay: DNA alkylation of duplex oligonucleotide, gel electrophoresis and LC-MS; format: biochemical
Text: In developing the compounds described herein, it was anticipated that reversible opening of the epoxide with a latent leaving group would reduce the reactivity of the warhead while attached to the antibody but would allow for reformation of the epoxide under appropriate conditions. After exploration of a variety of possible epoxide adducts using a potent analog (1, Me-ddx), it was discovered that halohydrin FSTs were not only readily synthesized under Lewis- or Brønsted-acid catalysis, but also reverted to the epoxide cleanly in pH 7.4 cell growth media at 37° C. (Scheme 7). […] The DNA-alkylating capability of the bromohydrin FST 3 in comparison to a set of FST analogs of varying potency by incubation with a self-complementary duplex DNA oligonucleotide d([…]) for 4 h at 23° C. then analysis by gel electrophoresis and LC-MS was investigated.

[9] = test system: SK-BR-3 (HER2+); assay: Cell proliferation assay, SK-BR-3; format: cell-based; conditions: Homo sapiens
Procedure: as §2

[10] = test system: HT-29 (HER2−); assay: Cell proliferation assay, HT-29; format: cell-based; conditions: Homo sapiens
Procedure: as §1, §2

[11] = test system: NCI-N87 (HER2+); assay: Cell proliferation assay, NCI-N87; format: cell-based; conditions: Homo sapiens
[12] = Liberation of bromohydrin by immolative spacer cyclization in buffer; format: physicochemical
Text: In order to prevent premature reversion to the epoxide, a system in which the trioxacarcin prodrug would be linked through the tertiary alcohol of the halohydrin was envisioned. Therefore, epoxide formation could only occur once the payload had been released from the antibody upon delivery to the cellular target. Despite recent advances in the field, technology for linkage through alcohol functional groups is limited. Synthesis of benzyl ether, ester, carbonate, carbamate, diphosphate, and silyl linkers at the tertiary alcohol of 3 (bromohydrin) through previously reported methods all failed. Indeed, the electron withdrawing substituents surrounding the halohydrin alcohol (two P-acetals, a y-acetal and a bromide) coupled with the steric encumbrance they impose prevented reaction of this alcohol with nearly all electrophiles evaluated. […] It was believed that this diamine spacer would release free bromohydrin after peptidase cleavage of the linker. Simultaneous Boc deprotection of both the phenol and amine with trifluoroacetic acid (TFA) provided the TFA salt of the amine 9 after concentration, which was evaluated immediately for liberation of bromohydrin 3. […] Modifications of the diamine spacer unit to increase the rate of cyclization were unsuccessful. […]

[13] = target: Cathepsin B (Homo sapiens, UniProt P07858); assay: Release Kinetics Assay with Cathepsin B; format: biochemical; conditions: pH 5.0, 37° C.
Procedure: Release Kinetics Assay: In a 1.5 mL screw-top conical plastic vial, the desired compound as a solution in DMSO (5 mM, 6 μL, 30 nmol) was mixed with a solution of N-acetylcysteine in DMSO (10 mM, 6 μL, […], 2 equiv) to quench the maleimide. The mixture was diluted with pH 5.0 sodium acetate buffer containing 8 mM N-acetylcysteine (255 μL). 1-napthalene acetic acid in DMSO (5 mM, 6 μL, 30 nmol) was added as an internal standard. A 9.2 U/mL solution of Cathepsin B in pH 5.0 buffer was added. The vial was placed in a heating block at 37° C. and protected from direct light. 25 μL aliquots of the reaction mixture were removed at various time points and analyzed by LC-MS. LC-MS peaks were integrated within the Agilent LC-MS software and the areas of each peak were normalized to 1-napthalene acetic acid at 280 nm. Percent drug-linker remaining is defined as the normalized peak area at a given time point divided by the normalized peak area at 0 hours×100%.

[14] = Compound Stability Assay (buffer, 37° C., LC-MS); format: physicochemical
Procedure: Compound Stability Assay: In a 1.5 mL screw-top conical plastic vial, the desired compound as a solution in DMSO (5 mM, 6 μL, 30 nmol) was mixed with a solution of N-acetylcysteine in DMSO (10 mM, 6 μL, […], 2 equiv) to quench the maleimide. The mixture was diluted with either pH 5.0 sodium acetate or pH 7.4 phosphate buffer containing 8 mM N-acetylcysteine (282 μL). 1-naphthalene acetic acid in DMSO (5 mM, 6 μL, 30 nmol) was added as an internal standard. In the case of testing free drug stability, no N-acetylcysteine solution was added and instead the amount of buffer added was increased an equivalent amount to compensate (288 μL total buffer). The vial was placed in a heating block at 37° C. and protected from direct light. 25 μL aliquots of the reaction mixture were removed at various time points and analyzed by LC-MS. LC-MS peaks were integrated within the Agilent LC-MS software and the areas of each peak were normalized to 1-napthalene acetic acid at 280 nm. Percent compound remaining is defined as the normalized peak area at a given time point divided by the normalized peak area at 0 hours×100%.

COc1c2c(c(O)c3c4c(c(C)cc13)[C@@H]1O[C@@]3(C(OC)OC)O[C@@H]1[C@@](O[C@H]1C[C@@H](O)[C@@](O)(C(C)=O)[C@H](C)O1)(O4)[C@@]31CO1)C(=O)[C@@H](O)C[C@@H]2O[C@H]1C[C@@](C)(O)[C@H](OC(C)=O)[C@H](C)O1 [Trioxacarcin A]
anti-tumor activity in murine models [1]: anti-tumor activity
IC70 SF-268 [2]: subnanmolar
IC70 H-460 [3]: subnanmolar
IC70 MCF-7 [4]: subnanmolar
IC70 LXFL 529L [5]: subnanmolar
gram-positive antibiotic activity [6]: gram-positive antibiotic activity

COc1c2c(c(O)c3c4c(c(C)cc13)C1OC3(C(OC)OC)OC1C(O[C@H]1C[C@@H](O)[C@@](O)(C(C)=O)[C@H](C)O1)(O4)C3(O)CO)C(=O)C(O)CC2O[C@H]1C[C@@](C)(O)[C@H](OC(C)=O)[C@H](C)O1 (stereo partly shown) [Trioxacarcin B]
anti-tumor activity in murine models [1]: anti-tumor activity
gram-positive antibiotic activity [6]: gram-positive antibiotic activity

COc1c2c(c(O)c3c4c(c(C)cc13)C1OC3(C(OC)OC)OC1C(OC1CC(O)C(O)(C(C)O)C(C)O1)(O4)C31CO1)C(=O)C(O)CC2OC1COC(C)(OC(C)=O)C(C)(O)C1 (stereo not shown) [Trioxacarcin C]
anti-tumor activity in murine models [1]: anti-tumor activity
gram-positive antibiotic activity [6]: gram-positive antibiotic activity

COc1c2c(c(O)c3c4c(c(C)cc13)C1OC3(C(OC)OC)OC1[C@@](OC)(O4)[C@@]3(O)CCl)C(=O)CCC2 (stereo partly shown) [compound 2]
potency relative to the bromohydrin ([7]; H460 cells, relative to bromohydrin 3): an order of magnitude less potent
IC50 ([7]; H460 cells): 21 nM

COc1c2c(c(O)c3c4c(c(C)cc13)C1OC3(C(OC)OC)OC1[C@@](OC)(O4)[C@@]3(O)CBr)C(=O)CCC2 (stereo partly shown) [compound 3]
IC50 ([7]; H460 cells): 2 nM
cellular toxicity against H460 cells relative to the parent epoxide [7]: no loss in cellular toxicity
reversion to the epoxide during DNA incubation ([8]; 4 h at 23° C.): did not revert to the epoxide
DNA alkylation ([8]; incubation with d(AATTACGTAATT) for 4 h at 23° C.): did not alkylate DNA

COc1c2c(c(O)c3c4c(c(C)cc13)C1OC3(C(OC)OC)OC1[C@@](OC)(O4)[C@@]3(O)CI)C(=O)CCC2 (stereo partly shown) [compound 4]
IC50 ([7]; H460 cells): 4 nM
cellular toxicity against H460 cells relative to the parent epoxide [7]: no loss in cellular toxicity
IC50 [9]: 4 nM
IC50 [10]: 7 nM
IC50 [11]: 1 nM

CNCCNC(=O)O[C@]1(CBr)C2(C(OC)OC)OC3c4c(C)cc5c(OC)c6c(c(O)c5c4O[C@]1(OC)C3O2)C(=O)CCC6 (stereo partly shown) [compound 9]
liberation of bromohydrin 3 through diamine spacer cyclization ([12]; 37° C., pH 7.4 or 5.0 buffer): no liberation of bromohydrin was observed

CNCCCC(=O)O[C@]1(CBr)C2(C(OC)OC)OC3c4c(C)cc5c(OC)c6c(c(O)c5c4O[C@]1(OC)C3O2)C(=O)CCC6 (stereo partly shown) [compound 13]
liberation of the bromohydrin through ester spacer cyclization ([12]; pH 7.4 or 5.0, extended incubation at 37° C. or 50° C.): failed to liberate the bromohydrin

COc1c2c(c(O)c3c4c(c(C)cc13)C1OC3(C(OC)OC)OC1[C@@](OC)(O4)[C@]3(CBr)OCN(CCS(C)(=O)=O)C(=O)OCc1ccc(NC(=O)[C@H](C)NC(=O)[C@@H](NC(=O)CCCCCN3C(=O)C=CC3=O)C(C)C)cc1)C(=O)CCC2 (stereo partly shown) [compound 19]
payload release upon exposure to Cathepsin B [13]: excellent release kinetics; also recorded: rapidly liberated FST-bromohydrin payload 3
stability of drug-linker quenched with N-acetyl cysteine ([14]; 37° C., pH 7.4 buffer): stable for days

COCCOCCOCCOCCOCCOCCOCCC(=O)NCCCC[C@H](NC(=O)CCOCCOCCOCCOCCN1C(=O)C=CC1=O)C(=O)N[C@H](C(=O)N[C@@H](C)C(=O)Nc1ccc(COC(=O)N(CCS(C)(=O)=O)CO[C@]2(CBr)C3(C(OC)OC)OC4c5c(C)cc6c(OC)c7c(c(O)c6c5O[C@]2(OC)C4O3)C(=O)CCC7)cc1)C(C)C (stereo partly shown) [compound 27]
payload release upon exposure to Cathepsin B [13]: rapidly releases payload
stability of drug-linker at pH 5.0 and 7.4 ([14]; 37° C., pH 5.0 and pH 7.4): exceptionally stable
free drug released ([14]; after 1 week at pH 7.4, 37° C.): no detectable free drug released
